# Assay results as given in ChEMBL document CHEMBL1201862, “PubChem BioAssay data set” (2004).
# The source made the active and inactive calls.
# Columns and labels:
# [1] = P. falciparum Dd2 growth inhibitors, dose response, SYBR Green, cherry-picked samples (AID 1159567); format: functional, cell-based
# [2] = target: T1, Replicative DNA helicase DnaB (Mycobacterium tuberculosis, UniProt P9WMR3); test: DnaB intein splicing inhibitors, dose response, biochemical, cell-free fluorescence (AID 449749); format: functional
# T1 sequence (P9WMR3 whole entry): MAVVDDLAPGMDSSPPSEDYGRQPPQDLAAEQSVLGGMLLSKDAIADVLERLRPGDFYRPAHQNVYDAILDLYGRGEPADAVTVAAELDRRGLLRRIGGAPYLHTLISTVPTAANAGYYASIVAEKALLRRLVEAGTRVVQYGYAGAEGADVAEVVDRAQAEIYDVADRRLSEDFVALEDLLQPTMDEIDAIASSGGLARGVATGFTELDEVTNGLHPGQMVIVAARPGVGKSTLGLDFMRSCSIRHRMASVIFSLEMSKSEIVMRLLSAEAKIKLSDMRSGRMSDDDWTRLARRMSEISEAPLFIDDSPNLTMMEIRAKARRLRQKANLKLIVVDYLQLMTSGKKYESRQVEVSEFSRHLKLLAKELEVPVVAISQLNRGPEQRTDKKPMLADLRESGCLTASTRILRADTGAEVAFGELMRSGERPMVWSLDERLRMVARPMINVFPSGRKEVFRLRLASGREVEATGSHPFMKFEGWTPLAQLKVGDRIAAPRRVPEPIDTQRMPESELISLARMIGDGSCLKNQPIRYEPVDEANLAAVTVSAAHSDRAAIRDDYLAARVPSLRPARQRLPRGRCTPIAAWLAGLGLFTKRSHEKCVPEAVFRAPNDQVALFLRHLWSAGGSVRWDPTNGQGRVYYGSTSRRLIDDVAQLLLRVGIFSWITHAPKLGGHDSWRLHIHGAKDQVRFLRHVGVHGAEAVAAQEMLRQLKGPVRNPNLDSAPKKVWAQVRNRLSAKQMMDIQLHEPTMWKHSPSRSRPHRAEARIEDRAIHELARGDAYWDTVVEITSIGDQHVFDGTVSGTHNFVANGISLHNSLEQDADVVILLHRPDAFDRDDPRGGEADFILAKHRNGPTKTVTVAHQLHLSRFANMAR
# HEK293 = test: inhibitors of LMP1-driven NF-kB reporter, dose response, cell-based, HEK293, luciferase, cherry-pick (AID 588343); format: functional; conditions: Homo sapiens
# Protein RecA = target: T2, Protein RecA (Mycobacterium tuberculosis, UniProt P9WHJ3); test: Fluorescence Cell-Free Homogeneous Dose Retest to Identify Inhibitors of RecA-Intein Splicing Activity. [Related pubchem assays (depositor defined):AID2097, AID2223, AID489010, AID492950]; format: functional
# T2 sequence (P9WHJ3 whole entry): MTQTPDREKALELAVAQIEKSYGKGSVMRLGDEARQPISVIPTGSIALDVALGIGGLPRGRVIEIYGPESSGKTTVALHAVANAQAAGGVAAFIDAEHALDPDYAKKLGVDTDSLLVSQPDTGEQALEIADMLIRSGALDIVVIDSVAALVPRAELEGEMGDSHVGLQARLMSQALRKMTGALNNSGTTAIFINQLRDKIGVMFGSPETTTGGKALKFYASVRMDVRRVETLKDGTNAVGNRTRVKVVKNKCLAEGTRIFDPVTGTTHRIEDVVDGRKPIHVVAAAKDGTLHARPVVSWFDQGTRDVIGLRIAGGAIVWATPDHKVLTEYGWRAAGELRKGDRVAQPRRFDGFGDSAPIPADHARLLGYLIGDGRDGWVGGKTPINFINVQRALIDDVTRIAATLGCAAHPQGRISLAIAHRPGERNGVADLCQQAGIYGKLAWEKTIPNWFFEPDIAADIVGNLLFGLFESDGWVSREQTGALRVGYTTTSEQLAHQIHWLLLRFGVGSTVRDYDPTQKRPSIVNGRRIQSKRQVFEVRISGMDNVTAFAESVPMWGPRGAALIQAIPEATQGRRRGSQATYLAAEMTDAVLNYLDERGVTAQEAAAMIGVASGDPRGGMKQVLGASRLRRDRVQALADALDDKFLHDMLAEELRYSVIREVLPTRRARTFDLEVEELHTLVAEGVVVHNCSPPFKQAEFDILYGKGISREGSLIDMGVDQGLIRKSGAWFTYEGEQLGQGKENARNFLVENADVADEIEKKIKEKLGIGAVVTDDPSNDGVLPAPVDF
# [3] = target: T3, Endoribonuclease toxin MazF (Escherichia coli K-12, UniProt P0AE70); test: MazF toxin RNase activators, dose response, biochemical, fluorescence, single-stranded RNA substrate, uHTS hits (AID 588481); format: functional
# T3 sequence (P0AE70 whole entry): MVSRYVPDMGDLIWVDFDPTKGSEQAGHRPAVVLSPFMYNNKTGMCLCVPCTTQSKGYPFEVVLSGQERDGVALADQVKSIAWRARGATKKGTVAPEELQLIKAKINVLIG
# [4] = target: T3, Endoribonuclease toxin MazF; test: fluorescent RNA oligo signal without MazF, dose response, counter-screen for MazEF activator project, biochemical, fluorescence, single-stranded RNase substrate (AID 588502); format: functional
# [5] = off-target signal loss in HeLa-CEM21 co-culture – HeLa F-luc CTL cells, cherry-picked, counter-screen for HIV-1 Env fusion inhibitor project, dose response (AID 652040); format: functional, cell-based;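 further: potency for signal decrease marking cytotoxic or nonspecific inhibition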
# [6] = ZM109 Env clade C HIV-1 fusion inhibitors, dose response, HeLa effector, CEM target cells, luciferase, cherry-pick (AID 652058); format: functional, cell-based
# [7] = inhibitors of clade B AD8 Env fusion, dose response, cell-based, cherry-pick (AID 652062); format: functional;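 further: luciferase signal from cell-cell fusion driven by HIV-1 clade B AD8 Env; potency is for inhibitors of fusion seen as a drop in luminescence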
# Cytochrome P450 1A2 = target: T4, Cytochrome P450 1A2 (Homo sapiens, UniProt P05177);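 further: PubChem cytochrome P450 panel assay, CYP1A2 panel member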
# T4 sequence (P05177 whole entry): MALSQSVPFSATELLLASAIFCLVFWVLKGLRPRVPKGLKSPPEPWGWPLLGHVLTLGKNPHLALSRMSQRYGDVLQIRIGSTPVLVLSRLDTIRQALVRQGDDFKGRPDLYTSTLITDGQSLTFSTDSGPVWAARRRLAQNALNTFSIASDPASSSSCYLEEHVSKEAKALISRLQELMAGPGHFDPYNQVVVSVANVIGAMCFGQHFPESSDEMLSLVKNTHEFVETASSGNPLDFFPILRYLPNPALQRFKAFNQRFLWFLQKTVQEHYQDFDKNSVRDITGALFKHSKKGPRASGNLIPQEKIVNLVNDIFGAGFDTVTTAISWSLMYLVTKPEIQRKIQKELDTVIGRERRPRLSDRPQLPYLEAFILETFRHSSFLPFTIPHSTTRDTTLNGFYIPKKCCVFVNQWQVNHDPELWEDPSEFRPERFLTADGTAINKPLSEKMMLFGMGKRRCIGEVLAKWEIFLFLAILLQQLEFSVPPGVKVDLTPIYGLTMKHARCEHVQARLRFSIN
# [8] = inhibitors of HIV Env-driven cell fusion, dose response, cherry-pick (AID 652057); format: functional, cell-based
compound,measurement,setting,value
Cc1ccccc1S(=O)(=O)N1[C@H](C#N)[C@@H](c2ccc(C#CC3CC3)cc2)[C@@H]1CO,AC50,[1],4.69 µM (active)
COc1cc(/C=C2/SC(=S)N(Cc3ccccc3)C2=O)ccc1OCC(=O)O,AC50,[2],4.22 µM (active)
same,AC50,HEK293,45.2 µM (active)
same,EC50,Protein RecA,6.85 µM (active)
CC1CC(=O)C2=C(C1)OC(N)=C(C#N)C2c1coc2ccccc2c1=O (stereo not given),EC50,[3],> 99 µM (inactive)
same,EC50,[4],> 99 µM (inactive)
COc1ccc(-c2c(C)nn3c(C(F)(F)F)cc(C)nc23)cc1,AC50,[5],17.8 µM (active)
O=C(NC1CCCCC1)C(c1cccs1)N(Cc1cccs1)C(=O)c1ccco1 (stereo not given),AC50,[5],48.2 µM (active)
same,AC50,[6],5.68 µM (active)
same,AC50,[7],1.55 µM (active)
same,AC50,Cytochrome P450 1A2,20 µM (inconclusive)
same,AC50,[8],6.72 µM (active)
NNS(=O)(=O)c1ccc(Sc2ccccn2)c([N+](=O)[O-])c1,EC50,[3],52.6 µM (inactive)
same,EC50,[4],> 99 µM (inactive)
CCN(Cc1nc(O)c2ccc(Cl)cc2n1)C(=O)c1cc(C2CC2)nn1-c1ccccc1,AC50,[5],6.32 µM (active)
same,AC50,[6],5.14 µM (active)
same,AC50,[7],4.62 µM (active)
same,AC50,[8],2.67 µM (active)
Cc1ccc(-c2cc(-c3ccccc3)nc(N)c2C#N)o1,EC50,[3],> 99 µM (inactive)
same,EC50,[4],44.6 µM (inactive)
